Results: patent US10654834B2 (Venenum Biodesign, LLC, priority 2016, dated 2020)

Columns and labels:
[1] = Pharmacokinetic profile in mice after oral gavage; assay type: in vivo, mouse; conditions: mouse; fasted male Hilltop mice, 10 mg/kg oral gavage, plasma; read-out: Cmax
Protocol: Pharmacokinetic Profile in Mice
In this series of studies, the pharmacokinetic profile characteristics of compounds of the present invention were evaluated. The plasma concentration levels of the compounds were monitored in the blood stream (i.e., plasma) after oral gavage using Cmax, and area under the curve (AUC).
8 week old male Hilltop mice were fasted overnight. Animals were randomized into groups (n=9) by body weight. Mice were dosed with 10 mg/kg compound (in 20% PEG400/80% 0.5% carboxymethylcellulose (medium viscosity)+0.25% Tween-80) at a volume of […] through oral gavage. Blood was collected via orbital bleeding at 0, 0.25, 0.5, 1, 2, and 4 h post-dose, with no one mouse having more than 3 blood draws. Blood was collected in EDTA coated tubes. Samples were stored at −20° C. until analysis.
Quantitation of compound levels in plasma was accomplished by LC-MS/MS analysis. Standard curve and quality control samples were prepared in male CD-1 mouse plasma containing EDTA K^2+ as an anticoagulant at final concentrations ranging from 500 to 0.1 ng/mL. The plasma samples, calibration curve standards, and quality control samples were prepared in an identical method in a 96-well deep plate (1 mL) with a quenching solution (1:1 mixed acetonitrile:methanol containing the internal standard Reserpine @ 400 ng/mL). Low volume samples were supplemented with CD-1 mouse plasma. The plate was mixed on multi-tube vortexer for 1 min and centrifuged at 4000 rpm for 30 min at 4° C. (Sorvall® Super T21) before LC-MS/MS analysis. LC conditions were developed and optimized based on each compound as needed. The outlet of the column was coupled to AB Sciex 4000 QTrap Mass Spectrometer (AB Sciex, Brugg Switzerland). Detection was carried out using multiple reaction monitoring mode with positive-ion detection focusing. The pharmacokinetic parameters were derived from the plasma-time data and calculated using the standard non-compartmental method with WinNonlin (Pharsight, Mountain View, Calif.) or PK Solver (Comp. Meth. Prog. Biomed. (2010), 99, 306-314).
Values reported are the mean plasma concentration of three mice. […]

mouse TGR5 receptor = biological target: T1, mouse TGR5 receptor (Mus musculus, UniProt Q80SS6); assay: Mouse TGR5 HTRF cAMP production assay (HEK293-EBNA cells, Cisbio cAMP HiRange kit); assay type: cell-based; conditions: HEK293-EBNA cells overexpressing mouse TGR5, HTRF cAMP assay
T1 construct: host or cells: HEK293-EBNA (293 c18, ATCC CRL10852)
T1 sequence (Q80SS6 1-329): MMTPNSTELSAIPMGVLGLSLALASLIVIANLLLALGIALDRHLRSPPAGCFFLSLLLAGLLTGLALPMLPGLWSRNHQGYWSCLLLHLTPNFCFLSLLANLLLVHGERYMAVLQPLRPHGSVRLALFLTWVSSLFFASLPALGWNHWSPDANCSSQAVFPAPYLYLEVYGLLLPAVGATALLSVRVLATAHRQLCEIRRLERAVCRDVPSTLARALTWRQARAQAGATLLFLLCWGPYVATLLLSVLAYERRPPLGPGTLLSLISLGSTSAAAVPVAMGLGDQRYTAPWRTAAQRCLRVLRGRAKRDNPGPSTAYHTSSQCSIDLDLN
Summary of the method: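 HEK293-EBNA cells stably expressing mouse TGR5 (episomal vector) were suspended in serum-free DMEM with 500 μM IBMX and exposed to 12-point half-log compound dilutions for 1 h at room temperature. cAMP was detected by HTRF (d2-cAMP/anti-cAMP cryptate, 1 h, room temperature), giving EC50 from duplicates.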

human TGR5 receptor = biological target: T2, human TGR5 receptor (Homo sapiens, UniProt Q8TDU6); assay: Human TGR5 cAMP production assay (hTGR5-CHO cells, DiscoveRx cAMP XS+ kit); assay type: cell-based; conditions: luminescent cAMP assay, read-out: Human TGR5 Lum. cAMP Activity (EC50)
T2 construct: host or cells: CHO-K1 (hTGR5-CHO)
T2 sequence (Q8TDU6 1-330): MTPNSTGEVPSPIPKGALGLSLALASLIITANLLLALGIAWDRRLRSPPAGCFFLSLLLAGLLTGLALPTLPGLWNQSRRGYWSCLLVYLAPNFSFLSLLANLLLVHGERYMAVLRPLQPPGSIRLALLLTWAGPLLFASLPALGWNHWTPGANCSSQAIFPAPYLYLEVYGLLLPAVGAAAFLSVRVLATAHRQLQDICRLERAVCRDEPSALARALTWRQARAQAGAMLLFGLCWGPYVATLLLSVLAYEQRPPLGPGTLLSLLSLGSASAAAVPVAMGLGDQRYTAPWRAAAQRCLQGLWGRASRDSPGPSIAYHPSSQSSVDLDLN
Summary of the method: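 CHO-K1 cells stably expressing hTGR5, in PBS with IBMX and cAMP antibody, treated with half-log compound dilutions for 1 h at room temperature. cAMP measured by enzyme-fragment complementation luminescence after overnight detection; EC50 values reported.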

Row | Compound | Cmax [1] [ng/mL] | EC50 (mouse TGR5 receptor) [nM] | EC50 (human TGR5 receptor) [nM]
1 | O=C(O)CN1CCC(CCCC2CCN(c3cc(N4CC[C@H]4C(=O)NCCc4ccc(C(F)(F)F)cc4)nc(C(F)(F)F)n3)CC2)CC1 [Compound 281, (S)-2-(4-(3-(1-(2-(trifluoromethyl)-6-(2-((4-(trifluoromethyl)phenethyl)carbamoyl)-azetidin-1-yl)pyrimidin-4-yl)piperidin-4-yl)propyl)piperidin-1-yl)acetic acid] | 92 | < 100 | < 100
2 | O=C(CCCC1CCN(c2cc(N3CCC[C@H]3C(=O)NCCc3ccc(C(F)(F)F)cc3)nc(C(F)(F)F)n2)CC1)NCCNc1cc(N(CCO)CCO)ncn1 [Compound 111] | 5.3 | < 100 | < 100
3 | COc1cc(C(F)(F)F)ccc1CCNC(=O)[C@@H]1CCCN(c2cc(N3CCC(CCO)CC3)nc(C(F)(F)F)n2)C1 [Compound 332, (R)-1-(6-(4-(2-hydroxyethyl)piperidin-1-yl)-2-(trifluoromethyl)pyrimidin-4-yl)-N-(2-methoxy-4-(trifluoromethyl)-phenethyl)piperidine-3-carboxamide] | 37 | < 100 | < 100
4 | N=C(N)NCCS(=O)(=O)N1CCN(c2cc(N3CCC[C@@H](C(=O)NCCc4ccc(C(F)(F)F)cc4)C3)nc(C(F)(F)F)n2)CC1 [Compound 349, (R)-1-(6-(4-((2-guanidinoethyl)sulfonyl)piperazin-1-yl)-2-(trifluoromethyl)-pyrimidin-4-yl)-N-(4-(trifluoromethyl)phenethyl)piperidine-3-carboxamide] | 1.7 | < 100 | < 100
5 | N=C(N)NCCC[C@H](NC(=O)CCCC1CCN(c2cc(N3CCC[C@H]3C(=O)NCCc3ccc(C(F)(F)F)cc3)nc(C(F)(F)F)n2)CC1)C(=O)O [Compound 74, (S)-5-guanidino-2-(4-(1-(2-(trifluoromethyl)-6-((S)-2-((4-(trifluoromethyl)phenethyl)carbamoyl)pyrrolidin-1-yl)pyrimidin-4-yl)piperidin-4-yl)butanamido)pentanoic acid] | 3.6 | < 100 | < 100
6 | O=C(CCCC1CCN(c2cc(N3CCC[C@H]3C(=O)NCCc3ccc(Cl)c(Cl)c3)nc(C(F)(F)F)n2)CC1)NCS(=O)(=O)O [Compound 136, (S)-(4-(1-(6-(2-((3,4-dichlorophenethyl)carbamoyl)pyrrolidin-1-yl)-2-(trifluoromethyl)pyrimidin-4-yl)piperidin-4-yl)butanamido)methanesulfonic acid] | 59 | < 100 | < 100

The next lines start with the values.

Row | Cmax [1] [ng/mL] | EC50 (mouse TGR5 receptor) [nM] | EC50 (human TGR5 receptor) [nM] | Compound
7 | 6.5 | < 100 | < 100 | N#Cc1ccc(CCNC(=O)[C@@H]2CCCN2c2cc(N3CCC(CCNS(=O)(=O)CCNc4ncc(C(=O)O)cn4)CC3)nc(C(F)(F)F)n2)cc1 [Compound 117, (S)-2-((2-(N-(2-(1-(6-(2-((4-cyanophenethyl)carbamoyl)pyrrolidin-1-yl)-2-(trifluoromethyl)pyrimidin-4-yl)piperidin-4-yl)ethyl)sulfamoyl)ethyl)amino)-pyrimidine-5-carboxylic acid]
8 | 2.6 | < 100 | < 100 | N#Cc1ccc(CCNC(=O)[C@@H]2CCN2c2cc(N3CCC(CCNc4c(NCCC(=O)O)c(=O)c4=O)CC3)nc(C(F)(F)F)n2)cc1 [Compound 301, (S)-3-((2-((2-(1-(6-(2-((4-cyanophenethyl)carbamoyl)azetidin-1-yl)-2-(trifluoromethyl)pyrimidin-4-yl)piperidin-4-yl)ethyl)amino)-3,4-dioxocyclobut-1-en-1-yl)amino)propanoic acid]
9 | 15 | < 100 | < 100 | N#Cc1ccc(CCNC(=O)[C@@H]2CCCN2c2cc(N3CCC(CCNC(=O)NCS(=O)(=O)O)CC3)nc(C(F)(F)F)n2)cc1 [Compound 79, (S)-(3-(2-(1-(6-(2-((4-cyanophenethyl)carbamoyl)pyrrolidin-1-yl)-2-(trifluoromethyl)pyrimidin-4-yl)piperidin-4-yl)ethyl)ureido)methanesulfonic acid]
10 | 16 | < 100 | < 100 | N#Cc1ccc(CCNC(=O)[C@@H]2CCCN2c2cc(N3CCC(CCCNC(=O)NCCS(=O)(=O)O)CC3)nc(C(F)(F)F)n2)cc1 [Compound 119, (S)-2-(3-(3-(1-(6-(2-((4-cyanophenethyl)carbamoyl)pyrrolidin-1-yl)-2-(trifluoromethyl)pyrimidin-4-yl)piperidin-4-yl)propyl)ureido)-ethanesulfonic acid]
11 | 2.5 | < 100 | < 100 | N#Cc1ccc(CCNC(=O)[C@@H]2CCCN2c2cc(N3CCC(CCNC(=O)N[C@@H](CCCNC(=N)N)C(=O)O)CC3)nc(C(F)(F)F)n2)cc1 [Compound 83, (S)-2-(3-(2-(1-(6-((S)-2-((4-cyanophenethyl)carbamoyl)pyrrolidin-1-yl)-2-(trifluoromethyl)pyrimidin-4-yl)piperidin-4-yl)ethyl)ureido)-5-guanidinopentanoic acid]
12 | 11 | < 100 | < 100 | N#Cc1ccc(CCNC(=O)[C@@H]2CCCN2c2cc(N3CCC(CCCC(=O)NCCOCCOCCNC(=N)N)CC3)nc(C(F)(F)F)n2)cc1 [Compound 127, (S)-1-(6-(4-(1-amino-1-imino-12-oxo-5,8-dioxa-2,11-diazapentadecan-15-yl)piperidin-1-yl)-2-(trifluoromethyl)-pyrimidin-4-yl)-N-(4-cyanophenethyl)-pyrrolidine-2-carboxamide]
13 | 26 | < 100 | < 100 | O=C(CCCC1CCN(c2cc(N3CCC[C@H]3C(=O)NCCc3ccc(C(F)(F)F)cc3)nc(C(F)(F)F)n2)CC1)NCCNS(=O)(=O)c1ccc(C(=O)O)cc1 [Compound 94, (S)-4-(N-(2-(4-(1-(2-(trifluoromethyl)-6-(2-((4-(trifluoromethyl)phenethyl)-carbamoyl)-pyrrolidin-1-yl)pyrimidin-4-yl)piperidin-4-yl)butanamido)ethyl)-sulfamoyl)benzoic acid]
14 | 22 | < 100 | < 100 | O=C(CCCC1CCN(c2cc(N3CCC[C@H]3C(=O)NCCc3ccc(Cl)cc3)nc(C(F)(F)F)n2)CC1)NCS(=O)(=O)O [Compound 137, (S)-(4-(1-(6-(2-((4-chlorophenethyl)-carbamoyl)pyrrolidin-1-yl)-2-(trifluoromethyl)pyrimidin-4-yl)-piperidin-4-yl)butanamido)-methanesulfonic acid]
